Assay results taken from patent US9770026B2, “Substituted pyrimidine compound and uses thereof” (Shenyang Sinochem Agrochemicals R&D Co., Ltd., priority 2012, dated 2017).

Key:
corn rust = experiment: protectant activity in vivo against corn rust
wheat powdery mildew = experiment: protectant activity in vivo against wheat powdery mildew; details: for pest or weed control at 6.25 ppm: read-out: protectant activity against wheat powdery mildew in vivo, 6.25 ppm
[1] = test system: Green peach aphids (Myzus Persicae Sulzer); experiment: bioactivity test against green peach aphid, airbrush foliar spray; type: in vivo
Method in brief: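 Aphids (15-30 per cabbage leaf disc) on moist filter paper were airbrush-sprayed at 10 psi, 0.5 mL, with compound from acetone:methanol (1:1) diluted in water with 0.1% tween 80. Held at 25±1 C, 60±5% RH; survivors counted after 48 hrs to give death rates.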

armyworm = experiment: bioactivity test against armyworm, airbrush spray; type: in vivo; details: for pest or weed control at 10 µg/mL / pest or weed control at 100 µg/mL / pest or weed control at 600 µg/mL: read-out: Insecticidal activity against armyworm (%)
carmine spider mite = experiment: bioactivity test against carmine spider mite, airbrush spray; type: in vivo
Method in brief: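 Broadbean seedlings infested with adult mites were sprayed with compound (acetone/methanol stock diluted in 0.1% Tween 80 water) by airbrush at 0.7 kg/cm^2, 0.5 ml. Three replicates were run. Mortality was scored after 72 hrs.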

Diamond back moth = experiment: insecticidal activity against diamond back moth, airbrush spray; type: in vivo
Method in brief: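 Airbrush leaf-disc spray test: both faces of 2 cm cabbage discs received 0.5 ml of test solution at 0.7 kg/cm^2. Solutions were made in acetone:methanol (1:1) and brought to concentration with 0.1% Tween 80 in water. Ten second-instar larvae per disc, triplicates, were held at 25° C and 60˜70% R.H., with mortality recorded at 72 hrs.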

[2] = 2.5 ppm, death rate after 48 hrs
[3] = 100 ppm, mortality after 72 hrs
[4] = 10 ppm, death rate after 48 hrs
[5] = 100 ppm, death rate after 48 hrs
[6] = 600 ppm, death rate after 48 hrs
[7] = 600 ppm, mortality after 72 hrs

CCc1ncnc(NCCc2ccc(Oc3ccc(C(F)(F)F)cn3)cc2)c1Cl.Cl [Compound I-6739]
80 to 99%: pest or weed control at 6.25 ppm (wheat powdery mildew; Triticum aestivum, 168 h)
100%: pest or weed control at 100 ppm (corn rust; Zea mays, 168 h, read-out: protectant activity against corn rust in vivo, 100 ppm) | pest or weed control at 400 ppm (corn rust; Zea mays, 168 h, read-out: protectant activity against corn rust in vivo, 400 ppm) | protectant activity against wheat powdery mildew in vivo (wheat powdery mildew; 25 ppm) | pest or weed control at 100 ppm (wheat powdery mildew; Triticum aestivum, 168 h, read-out: protectant activity against wheat powdery mildew in vivo, 100 ppm) | pest or weed control at 400 ppm (wheat powdery mildew; Triticum aestivum, 168 h, read-out: protectant activity against wheat powdery mildew in vivo, 400 ppm) | control (test results against green peach aphid) [1, 2] | control (test results against green peach aphid) ([1]; 5 ppm, death rate after 48 hrs) | pest or weed control at 1.25 µg/mL ([1]; Myzus persicae, foliar, 48 h, 1.25 mg/L, contrastive test, read-out: Insecticidal activity against peach aphid (%)) | pest or weed control at 2.5 µg/mL ([1]; Myzus persicae, foliar, 48 h, 2.5 mg/L, contrastive test, read-out: Insecticidal activity against peach aphid (%)) | pest or weed control at 5 µg/mL ([1]; Myzus persicae, foliar, 48 h, 5 mg/L, contrastive test, read-out: Insecticidal activity against peach aphid (%)) | pest or weed control at 10 µg/mL ([1]; Myzus persicae, foliar, 48 h, 10 mg/L, contrastive test, read-out: Insecticidal activity against peach aphid (%)) | pest or weed control at 100 µg/mL ([1]; Myzus persicae, foliar, 48 h, 100 mg/L, contrastive test, read-out: Insecticidal activity against peach aphid (%)) | pest or weed control at 600 µg/mL ([1]; Myzus persicae, foliar, 48 h, 600 mg/L, contrastive test, read-out: Insecticidal activity against peach aphid (%)) | pest or weed control at 10 ppm ([1]; Myzus persicae, foliar, 48 h, 10 ppm, death rate after 48 hrs) | pest or weed control at 100 ppm ([1]; Myzus persicae, foliar, 48 h, 100 ppm, death rate after 48 hrs) | pest or weed control at 600 ppm ([1]; Myzus persicae, foliar, 48 h, 600 ppm, death rate after 48 hrs) | control (test results against armyworm) (armyworm; 100 ppm, mortality after 72 h) | pest or weed control at 600 ppm (armyworm; 72 h, 600 ppm, mortality after 72 h) | Insecticidal activity against carmine spider mite (% ) (carmine spider mite; 10 mg/L, contrastive test) | Insecticidal activity against carmine spider mite (% ) (carmine spider mite; 100 mg/L, contrastive test) | Insecticidal activity against carmine spider mite (% ) (carmine spider mite; 600 mg/L, contrastive test) | control against carmine spider mite (carmine spider mite; 10 ppm, mortality after 72 hrs) | pest or weed control at 100 ppm (carmine spider mite; Tetranychus cinnabarinus, 72 h, 100 ppm, mortality after 72 hrs) | pest or weed control at 600 ppm (carmine spider mite; Tetranychus cinnabarinus, 72 h, 600 ppm, mortality after 72 hrs) | control (test results against diamond back moth) (Diamond back moth; [3]) | pest or weed control at 600 ppm (Diamond back moth; 72 h, 600 ppm, mortality after 72 hrs, read-out: control (test results against diamond back moth))
76%: Insecticidal activity against carmine spider mite (% ) (carmine spider mite; 2.5 mg/L)
93%: Insecticidal activity against carmine spider mite (% ) (carmine spider mite; 5 mg/L)

CCc1ncnc(NCCc2ccc(Oc3ccc(C(F)(F)F)cn3)cc2)c1Cl [Compound I-6756]
28%: Insecticidal activity against armyworm (%) (armyworm; 10 mg/L)
71%: Insecticidal activity against carmine spider mite (% ) (carmine spider mite; 2.5 mg/L)
88%: Insecticidal activity against carmine spider mite (% ) (carmine spider mite; 5 mg/L)
100%: protectant activity against corn rust in vivo (corn rust; 100 ppm) | protectant activity against corn rust in vivo (corn rust; 400 ppm) | protectant activity against wheat powdery mildew in vivo (wheat powdery mildew; 100 ppm) | protectant activity against wheat powdery mildew in vivo (wheat powdery mildew; 400 ppm) | Insecticidal activity against peach aphid (%) ([1]; 1.25 mg/L, contrastive test) | Insecticidal activity against peach aphid (%) ([1]; 2.5 mg/L, contrastive test) | Insecticidal activity against peach aphid (%) ([1]; 5 mg/L, contrastive test) | Insecticidal activity against peach aphid (%) ([1]; 10 mg/L, contrastive test) | Insecticidal activity against peach aphid (%) ([1]; 100 mg/L, contrastive test) | Insecticidal activity against peach aphid (%) ([1]; 600 mg/L, contrastive test) | control (test results against green peach aphid) [1, 2] | control (test results against green peach aphid) ([1]; 5 ppm, death rate after 48 hrs) | control (test results against green peach aphid) [1, 4] | control (test results against green peach aphid) [1, 5] | control (test results against green peach aphid) [1, 6] | Insecticidal activity against armyworm (%) (armyworm; 100 mg/L) | Insecticidal activity against armyworm (%) (armyworm; 600 mg/L) | control (test results against armyworm) (armyworm; 100 ppm, mortality after 72 h) | control (test results against armyworm) (armyworm; 600 ppm, mortality after 72 h) | Insecticidal activity against carmine spider mite (% ) (carmine spider mite; 10 mg/L, contrastive test) | Insecticidal activity against carmine spider mite (% ) (carmine spider mite; 100 mg/L, contrastive test) | Insecticidal activity against carmine spider mite (% ) (carmine spider mite; 600 mg/L, contrastive test) | control against carmine spider mite (carmine spider mite; 10 ppm, mortality after 72 hrs) | control against carmine spider mite (carmine spider mite; [3]) | control against carmine spider mite (carmine spider mite; [7]) | control (test results against diamond back moth) (Diamond back moth; [3]) | control (test results against diamond back moth) (Diamond back moth; [7])

CCc1ncnc(NCCc2ccc(Oc3ccc(C(F)(F)F)cn3)cc2)c1Cl [Compound I-6757]
75%: Insecticidal activity against carmine spider mite (% ) (carmine spider mite; 2.5 mg/L)
28%: pest or weed control at 10 µg/mL (armyworm; 72 h, 10 mg/L)
97%: pest or weed control at 10 µg/mL (carmine spider mite; Tetranychus cinnabarinus, 72 h, 10 mg/L, contrastive test, read-out: Insecticidal activity against carmine spider mite (% ))
100%: protectant activity against corn rust in vivo (corn rust; 100 ppm) | protectant activity against corn rust in vivo (corn rust; 400 ppm) | protectant activity against wheat powdery mildew in vivo (wheat powdery mildew; 100 ppm) | protectant activity against wheat powdery mildew in vivo (wheat powdery mildew; 400 ppm) | Insecticidal activity against peach aphid (%) ([1]; 1.25 mg/L, contrastive test) | Insecticidal activity against peach aphid (%) ([1]; 2.5 mg/L, contrastive test) | Insecticidal activity against peach aphid (%) ([1]; 5 mg/L, contrastive test) | Insecticidal activity against peach aphid (%) ([1]; 10 mg/L, contrastive test) | Insecticidal activity against peach aphid (%) ([1]; 100 mg/L, contrastive test) | Insecticidal activity against peach aphid (%) ([1]; 600 mg/L, contrastive test) | control (test results against green peach aphid) [1, 2] | control (test results against green peach aphid) [1, 4] | control (test results against green peach aphid) [1, 5] | control (test results against green peach aphid) [1, 6] | pest or weed control at 5 ppm ([1]; Myzus persicae, foliar, 48 h, 5 ppm, death rate after 48 hrs) | control (test results against armyworm) (armyworm; 100 ppm, mortality after 72 h) | control (test results against armyworm) (armyworm; 600 ppm, mortality after 72 h) | pest or weed control at 100 µg/mL (armyworm; 72 h, 100 mg/L) | pest or weed control at 600 µg/mL (armyworm; 72 h, 600 mg/L) | control against carmine spider mite (carmine spider mite; [3]) | control against carmine spider mite (carmine spider mite; [7]) | pest or weed control at 100 µg/mL (carmine spider mite; Tetranychus cinnabarinus, 72 h, 100 mg/L, contrastive test, read-out: Insecticidal activity against carmine spider mite (% )) | pest or weed control at 600 µg/mL (carmine spider mite; Tetranychus cinnabarinus, 72 h, 600 mg/L, contrastive test, read-out: Insecticidal activity against carmine spider mite (% )) | control (test results against diamond back moth) (Diamond back moth; [3]) | control (test results against diamond back moth) (Diamond back moth; [7])
80%: Insecticidal activity against carmine spider mite (% ) (carmine spider mite; 5 mg/L)

Cc1ncnc(NCCc2ccc(Oc3ccc(Cl)cc3)cc2)c1Cl [II-19]
50%: Insecticidal activity against diamond back moth (%) (Diamond back moth; 10 mg/L)
100%: protectant activity against corn rust in vivo (corn rust; 400 ppm) | protectant activity against wheat powdery mildew in vivo (wheat powdery mildew; 400 ppm) | Insecticidal activity against peach aphid (%) ([1]; 10 mg/L, contrastive test) | Insecticidal activity against peach aphid (%) ([1]; 100 mg/L, contrastive test) | Insecticidal activity against peach aphid (%) ([1]; 600 mg/L, contrastive test) | control (test results against green peach aphid) [1, 4] | control (test results against green peach aphid) [1, 5] | control (test results against green peach aphid) [1, 6] | control (test results against armyworm) (armyworm; 600 ppm, mortality after 72 h) | control against carmine spider mite (carmine spider mite; [3]) | control against carmine spider mite (carmine spider mite; [7]) | Insecticidal activity against diamond back moth (%) (Diamond back moth; 100 mg/L) | Insecticidal activity against diamond back moth (%) (Diamond back moth; 600 mg/L) | control (test results against diamond back moth) (Diamond back moth; [3]) | control (test results against diamond back moth) (Diamond back moth; [7])

CCc1ncnc(NCCc2ccc(Oc3ccc(C(F)(F)F)cc3)cc2)c1Cl.Cl [II-19334]
60%: pest or weed control at 1.6 µg/mL (wheat powdery mildew; Triticum aestivum, 168 h, read-out: control effect against wheat powdery mildew (%), 1.6 mg/L, protectant activity)
83%: Insecticidal activity against peach aphid (%) ([1]; 2.5 mg/L, contrastive test)
100%: protectant activity against corn rust in vivo (corn rust; 400 ppm) | protectant activity against wheat powdery mildew in vivo (wheat powdery mildew; 25 ppm) | protectant activity against wheat powdery mildew in vivo (wheat powdery mildew; 100 ppm) | protectant activity against wheat powdery mildew in vivo (wheat powdery mildew; 400 ppm) | pest or weed control at 6.25 µg/mL (wheat powdery mildew; Triticum aestivum, 168 h, read-out: control effect against wheat powdery mildew (%), 6.25 mg/L, protectant activity) | pest or weed control at 25 µg/mL (wheat powdery mildew; Triticum aestivum, 168 h, read-out: control effect against wheat powdery mildew (%), 25 mg/L, protectant activity) | pest or weed control at 100 µg/mL (wheat powdery mildew; Triticum aestivum, 168 h, read-out: control effect against wheat powdery mildew (%), 100 mg/L, protectant activity) | pest or weed control at 400 µg/mL (wheat powdery mildew; Triticum aestivum, 168 h, read-out: control effect against wheat powdery mildew (%), 400 mg/L, protectant activity) | pest or weed control at 6.25 ppm (wheat powdery mildew; Triticum aestivum, 168 h) | Insecticidal activity against peach aphid (%) ([1]; 10 mg/L, contrastive test) | Insecticidal activity against peach aphid (%) ([1]; 100 mg/L, contrastive test) | Insecticidal activity against peach aphid (%) ([1]; 600 mg/L, contrastive test) | control (test results against green peach aphid) [1, 4] | control (test results against green peach aphid) [1, 5] | control (test results against green peach aphid) [1, 6] | control (test results against armyworm) (armyworm; 600 ppm, mortality after 72 h) | pest or weed control at 600 µg/mL (armyworm; 72 h, 600 mg/L) | Insecticidal activity against carmine spider mite (% ) (carmine spider mite; 5 mg/L) | Insecticidal activity against carmine spider mite (% ) (carmine spider mite; 10 mg/L, contrastive test) | Insecticidal activity against carmine spider mite (% ) (carmine spider mite; 100 mg/L, contrastive test) | Insecticidal activity against carmine spider mite (% ) (carmine spider mite; 600 mg/L, contrastive test) | control against carmine spider mite (carmine spider mite; 10 ppm, mortality after 72 hrs) | control against carmine spider mite (carmine spider mite; [3]) | control against carmine spider mite (carmine spider mite; [7]) | pest or weed control at 5 ppm (carmine spider mite; Tetranychus cinnabarinus, 72 h, 5 ppm, mortality after 72 hrs) | control (test results against diamond back moth) (Diamond back moth; [7]) | pest or weed control at 100 ppm (Diamond back moth; 72 h, 100 ppm, mortality after 72 hrs, read-out: control (test results against diamond back moth))
67%: Insecticidal activity against peach aphid (%) ([1]; 1.25 mg/L, contrastive test)
80 to 99%: pest or weed control at 2.5 ppm ([1]; Myzus persicae, foliar, 48 h, 2.5 ppm, death rate after 48 hrs) | pest or weed control at 100 ppm (armyworm; 72 h, 100 ppm, mortality after 72 h) | pest or weed control at 2.5 ppm (carmine spider mite; Tetranychus cinnabarinus, 72 h, 2.5 ppm, mortality after 72 hrs)
84%: pest or weed control at 100 µg/mL (armyworm; 72 h, 100 mg/L)
87%: Insecticidal activity against carmine spider mite (% ) (carmine spider mite; 2.5 mg/L)
44%: pest or weed control at 10 µg/mL (armyworm; 72 h, 10 mg/L)
96%: Insecticidal activity against peach aphid (%) ([1]; 5 mg/L, contrastive test)

Cc1ncnc(NCCc2ccc(Oc3cccc(C(F)(F)F)c3)nc2)c1Cl [III-21]
100%: protectant activity against corn rust in vivo (corn rust; 100 ppm) | protectant activity against corn rust in vivo (corn rust; 400 ppm) | protectant activity against wheat powdery mildew in vivo (wheat powdery mildew; 400 ppm) | control (test results against green peach aphid) [1, 6] | control (test results against armyworm) (armyworm; 600 ppm, mortality after 72 h) | control against carmine spider mite (carmine spider mite; [7]) | control (test results against diamond back moth) (Diamond back moth; [7])
